The results in this text go back to ChEMBL document CHEMBL3808383, “Synthesis and antitubercular evaluation of novel dibenzo[b,d]thiophene tethered imidazo[1,2-a]pyridine-3-carboxamides” (Bioorg Med Chem Lett, 2016).

≈ marks a conversion by molar mass, not a printed value.

The test system of data set [1] is Mycobacterium tuberculosis. The data set is described as follows: Antimycobacterial activity against Mycobacterium tuberculosis H37Rv ATCC 27294 after 28 days by agar dilution method. Format: functional. Particulars: H37Rv ATCC 27294, 672 h. A general note: Agar dilution tests growth on a series of plates holding different concentrations.
Data set [2] is described as follows: Cytotoxicity against HEK293T cells assessed as cell growth inhibition at 50 ug/mL after 72 hrs by MTT assay. It is filed as cell-based, HEK-293T. Particulars: human, read-out: GI.

For `O=C(NCc1ccc(N2CCC(Cc3ccccc3)CC2)cc1)c1c(-c2ccc3sc4ccccc4c3c2)nc2ccccn12`, the MIC in data set [1] (read-out: MIC) was determined as 0.78 µg/mL; in data set [1] (read-out: MIC100), 1.3 µM. The inhibition at 72 h, 50 ug/mL in data set [2] was found to be 34.8%.

Turning to `O=C(NCc1ccc(N2CCSCC2)cc1)c1c(-c2ccc3sc4ccccc4c3c2)nc2ccccn12`, the MIC in data set [1] (read-out: MIC) was determined as 25 µg/mL.

As for `NC(=O)c1cnccn1` [PYRAZINAMIDE], the MIC in data set [1] (read-out: MIC) came to 50 µg/mL.

Consider `O=C(NCc1ccc(Oc2ccc(OC(F)(F)F)cc2)cc1)c1c(-c2ccc3sc4ccccc4c3c2)nc2ccccn12`, for which the MIC in data set [1] (read-out: MIC) was found to be 12.5 µg/mL.

Take `COc1ccc(CCNC(=O)c2c(C)nc3ccccn23)cc1`: the MIC50 (in general, the lowest concentration that inhibits either 50% of growth or 50% of the strains tested, depending on the study) in data set [1] is 2.63 µM (≈ 0.814 µg/mL).

For the molecule `O=C(NCc1ccc(N2CCOCC2)cc1)c1c(-c2ccc3sc4ccccc4c3c2)nc2ccccn12`, the MIC in data set [1] (read-out: MIC) was found to be 25 µg/mL.

Regarding `CC(C)(C)c1ccc(Oc2ccc(CNC(=O)c3c(-c4ccc5sc6ccccc6c5c4)nc4ccccn34)cc2)cc1`, in data set [1] (read-out: MIC), the MIC amounted to 25 µg/mL.

Turning to `NNC(=O)c1ccncc1` [ISONIAZID], the MIC in data set [1] (read-out: MIC) is 0.1 µg/mL.

Consider `O=C(NCc1ccccc1)c1c(-c2ccc3sc4ccccc4c3c2)nc2ccccn12`, for which the MIC in data set [1] (read-out: MIC) was 3.13 µg/mL; in data set [1] (read-out: MIC100) it was 7.21 µM. Besides, in data set [2], the inhibition at 72 h, 50 ug/mL was determined as 34.6%.

As for `O=C(NCc1ccc(Oc2ccccc2)cc1)c1c(-c2ccc3sc4ccccc4c3c2)nc2ccccn12`, the MIC in data set [1] (read-out: MIC) turned out to be 6.25 µg/mL. Moreover, the inhibition at 72 h, 50 ug/mL in data set [2] was 38.4%.

Turning to `O=C(NCc1ccc(OC(F)(F)F)cc1)c1c(-c2ccc3sc4ccccc4c3c2)nc2ccccn12`, the MIC in data set [1] (read-out: MIC) is 25 µg/mL.

Turning to `O=C(NCc1ccc(F)cc1)c1c(-c2ccc3sc4ccccc4c3c2)nc2ccccn12`, the MIC in data set [1] (read-out: MIC) came to 3.13 µg/mL. In addition, the inhibition at 72 h, 50 ug/mL in data set [2] was determined as 25.8%.

In the case of `O=C(NCc1ccc(Oc2ccc(F)cc2)cc1)c1c(-c2ccc3sc4ccccc4c3c2)nc2ccccn12`, the MIC in data set [1] (read-out: MIC) came to 25 µg/mL.

As for `O=C(NCc1ccc(N2CCN(c3ccc(Cl)cc3)CC2)cc1)c1c(-c2ccc3sc4ccccc4c3c2)nc2ccccn12`, the MIC in data set [1] (read-out: MIC) came to 1.56 µg/mL; in data set [1] (read-out: MIC100) it was 2.5 µM. Further, the inhibition at 72 h, 50 ug/mL in data set [2] came to 24.4%.

On to `O=C(NCc1ccc(N2CCN(Cc3ccccc3)CC2)cc1)c1c(-c2ccc3sc4ccccc4c3c2)nc2ccccn12`, for which the MIC in data set [1] (read-out: MIC) came to 25 µg/mL.

For `Cc1nc2ccccn2c1C(=O)NCc1ccccc1`, the MIC50 in data set [1] was determined as 1.86 µM (≈ 0.493 µg/mL).

`O=C(NCc1ccc(N2CCN(c3ccccc3F)CC2)cc1)c1c(-c2ccc3sc4ccccc4c3c2)nc2ccccn12`: in data set [1] (read-out: MIC), the MIC came to 25 µg/mL.

`O=C(NCc1ccc(Oc2ccc(Cl)cc2)cc1)c1c(-c2ccc3sc4ccccc4c3c2)nc2ccccn12`: in data set [1] (read-out: MIC), the MIC was found to be 25 µg/mL.

Consider `COc1ccc(CNC(=O)c2c(-c3ccc4sc5ccccc5c4c3)nc3ccccn23)cc1`, for which, in data set [1] (read-out: MIC), the MIC was determined as 6.25 µg/mL. In addition, the inhibition at 72 h, 50 ug/mL in data set [2] amounted to 37%.

In the case of `CC[C@@H](CO)NCCN[C@@H](CC)CO` [ETHAMBUTOL], the MIC in data set [1] (read-out: MIC) amounted to 3.13 µg/mL.

With `O=C(NCc1ccc(C(F)(F)F)cc1)c1c(-c2ccc3sc4ccccc4c3c2)nc2ccccn12`, the MIC in data set [1] (read-out: MIC) is 12.5 µg/mL.

`CCc1nc2ccccn2c1C(=O)NCc1ccc(Oc2ccc(OC(F)(F)F)cc2)cc1`: in data set [1], the MIC50 stood at 0.013 µM (≈ 0.00592 µg/mL).

Consider `Cc1ccc(CNC(=O)c2c(-c3ccc4sc5ccccc5c4c3)nc3ccccn23)cc1`, for which, in data set [1] (read-out: MIC), the MIC was 12.5 µg/mL.

Take `O=C(NCc1ccc(Cl)cc1)c1c(-c2ccc3sc4ccccc4c3c2)nc2ccccn12`: the MIC in data set [1] (read-out: MIC) came to 25 µg/mL.

For the molecule `CC(C)(C)c1ccc(CNC(=O)c2c(-c3ccc4sc5ccccc5c4c3)nc3ccccn23)cc1`, the MIC in data set [1] (read-out: MIC) came to 1.56 µg/mL; in data set [1] (read-out: MIC100), 3.22 µM. Moreover, the inhibition at 72 h, 50 ug/mL in data set [2] was 18.8%.
